According to US10829798B2, “DNA-linked enzyme-coupled assays” (THE REGENTS OF THE UNIVERSITY OF CALIFORNIA, priority 2014, dated 2020):

Assays:
OleD = biological target: T1, OleD (Streptomyces antibioticus, UniProt Q53685, P55A/R82V/R83E/T84P); test: qPCR DLEnCA, cell-free transcription/translation-derived OleD; type: biochemical
T1 construct: made in house; host or cells: PURExpress In Vitro Protein Synthesis Kit (NEB E6800L), cell-free transcription/translation, linear DNA with T7 promoter
Experimental: (§1) FIG. 4A-FIG. 4D. qPCR DLEnCA and substrate specificity studies. A. Chemicals used as substrates in subsequent assays: (i) known substrates of OleD; (ii) flavone library; (iii) known substrates of GT05 (UGT72B1 (Q9M156)) and GT06 (UGT89B1 (AT1 G73880)). B. DNA encoding OleD (5 nM) was incubated in a cell-free transcription/translation system for 3 hours at 37° C., followed by the addition of chemical (1 mM) and UDP-Glc (2 μM). After a subsequent incubation of 3 hours, TbGT and probe (0.2 nM) were added. After probe purification and MfeI digestion, probe integrity was identified using qPCR. Percent recovery of probe is reported (n=8; error bars=standard error). C. DNA encoding OleD (5 nM) was incubated for 3 hours at 37° C. in a cell-free transcription/translation system, followed by the addition of flavone (1 mM) and UDP-Glc (2 μM). After a subsequent incubation of 3 hours, TbGT and probe (0.2 nM) were added. After probe purification and MfeI addition, probe integrity was identified using qPCR. Percent recovery of probe is reported (n=8; error bars=standard error). D. DNA encoding OleD, GT05, or GT06 (5 nM) were incubated for 3 hours at 37° C. in a cell-free transcription/translation system, followed by the addition of chemical (1 mM) and UDP-Glc (2 μM). After a subsequent incubation of 3 hours, TbGT and probe (0.2 nM) were added. After probe purification and MfeI digestion, probe integrity was identified using qPCR. Percent recovery of probe is reported as a heat map (n=8) (specific recovery figures and percent error can be found in FIG. 16). *=p<0.05 vs. no chemical control.
PCR tubes were used for most reactions. All incubations were performed at 37° C. Assays were initiated upon the addition of linear DNA (5 nM final concentration) to 4 μl PURExpress Solution A and 3 μl PURExpress Solution B. Samples were incubated at 37° C. for 3 hours prior to addition of UDP-Glucose and chemical (1 mM final concentration) in DMSO. Samples were incubated for an additional 3 hours prior to addition of 1 unit T4 Phage β-glucosyltransferase containing 0.2 nM probe. Samples were incubated an additional 3 hours before DNA was purified using the Zymo DNA Clean and Concentrator Kit. Samples were digested overnight with MfeI prior to analysis. Concentration of intact DNA probe was identified using the iQ SYBR Green Supermix (1708880) with probe DNA as standards. qPCR was carried out on the Bio-Rad iQ5 Multicolor Real-Time PCR Detection System using primers P13 and P14 with the following temperatures; 94° C. 30 seconds followed by 40 cycles of 94° C. 10 seconds and 55° C. for 30 seconds. All results were compared to uncut probe DNA that had been carried through the process as negative controls (considered full recovery of probe).
The second DLEnCA workflow developed involved qPCR as a final readout (qPCR DLEnCA, FIG. 1—qPCR workflow). A linear fragment of DNA was modified to contain 5-hm-cytosines throughout. To determine a threshold for probe protection under conditions amenable to the qPCR DLEnCA workflow, UDP-Glc was titrated into mixtures of the cell-free transcription/translation system containing 5-hm-cytosine-modified DNA probe (0.2 nM probe DNA containing 0.1 μM modified 5-hm-cytosines) and TbGT. After digestion with the restriction enzyme MfeI, the amount of intact DNA probe was determined using qPCR (FIG. 3C). […] A threshold for protection was identified at a 20:1 molar ratio of UDP-Glc to total 5-hm-cytosine in probe DNA; this UDP-Glc amount was used as the starting concentration of UDP-Glc for all qPCR experiments. To test the feasibility of qPCR DLEnCA, OleD was again tested upon the substrate kaempferol (FIG. 3D), using DNA encoding a promoter and OleD as starting material. As expected, when all components of the assay were present, 27% of intact probe DNA was recovered. […]

GT05 (UGT72B1 (Q9M156)) = biological target: T2, GT05 (UGT72B1 (Q9M156)) (Arabidopsis thaliana, UniProt Q9M156); test: qPCR DLEnCA, cell-free transcription/translation-derived GT05; type: biochemical; conditions: GT05 DNA 5 nM, chemical 1 mM, UDP-Glc 2 μM, probe 0.2 nM; low recovery = substrate glucosylated
T2 construct: made in house; host or cells: PURExpress In Vitro Protein Synthesis Kit (NEB E6800L), cell-free transcription/translation, linear DNA amplified from pET15b construct
T2 sequence (Q9M156 1-480): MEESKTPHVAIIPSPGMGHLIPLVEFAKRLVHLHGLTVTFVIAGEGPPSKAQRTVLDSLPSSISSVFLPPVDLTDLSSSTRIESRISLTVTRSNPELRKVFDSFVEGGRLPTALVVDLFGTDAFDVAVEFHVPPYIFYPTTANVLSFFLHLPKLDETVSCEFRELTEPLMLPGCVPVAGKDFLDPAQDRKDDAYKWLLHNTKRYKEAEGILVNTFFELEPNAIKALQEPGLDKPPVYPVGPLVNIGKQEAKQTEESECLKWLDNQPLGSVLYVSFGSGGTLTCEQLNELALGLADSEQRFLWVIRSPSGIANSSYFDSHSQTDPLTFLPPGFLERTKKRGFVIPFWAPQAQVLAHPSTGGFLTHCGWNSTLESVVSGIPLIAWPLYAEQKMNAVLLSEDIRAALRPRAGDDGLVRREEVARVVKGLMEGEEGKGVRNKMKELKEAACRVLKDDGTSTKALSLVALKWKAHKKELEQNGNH
Experimental: as §1
PCR tubes were used for most reactions. All incubations were performed at 37° C. Assays were initiated upon the addition of linear DNA (5 nM final concentration) to 4 μl PURExpress Solution A and 3 μl PURExpress Solution B. Samples were incubated at 37° C. for 3 hours prior to addition of UDP-Glucose and chemical (1 mM final concentration) in DMSO. Samples were incubated for an additional 3 hours prior to addition of 1 unit T4 Phage β-glucosyltransferase containing 0.2 nM probe. […]

T1 sequence (Q53685 other isoform, or with tags, fused parts or gaps P55A/R82V/R83E/T84P): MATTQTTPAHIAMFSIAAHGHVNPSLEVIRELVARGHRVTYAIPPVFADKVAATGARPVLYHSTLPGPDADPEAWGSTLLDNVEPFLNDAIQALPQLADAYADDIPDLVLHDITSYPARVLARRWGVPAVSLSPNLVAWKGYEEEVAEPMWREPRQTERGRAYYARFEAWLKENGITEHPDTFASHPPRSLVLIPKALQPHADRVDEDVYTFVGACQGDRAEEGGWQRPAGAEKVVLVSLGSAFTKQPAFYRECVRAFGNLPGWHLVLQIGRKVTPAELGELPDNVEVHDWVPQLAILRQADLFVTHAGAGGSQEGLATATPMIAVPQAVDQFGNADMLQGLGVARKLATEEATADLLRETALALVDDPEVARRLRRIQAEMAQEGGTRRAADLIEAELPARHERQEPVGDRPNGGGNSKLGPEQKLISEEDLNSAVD

In the case of `O=c1c(O)c(-c2ccc(O)cc2)oc2cc(O)cc(O)c12` [I, kaempferol], the “recovery of intact probe DNA” value (OleD; OleD DNA 5 nM, chemical 1 mM, UDP-Glc 2 μM, probe 0.2 nM, low recovery = substrate glucosylated) is reported as 27%, the “activity of OleD with chemical” value (OleD; tested against I, X, XI, XII, qPCR DLEnCA, verified with LCMS) is reported as “showed activity” and the recovery of probe (GT05 (UGT72B1 (Q9M156))) is reported as 32%.
